Reference: article PMC9110316 (Computational and Structural Biotechnology Journal, 2022)
Read-outs that look alike come from different tables or passages of the source. Where a SMILES comes first, the peptide text is derived from it. [ ]: non-standard residue; d: D form. The star is where a group is joined. Nle = CCCC[CH](N)C(=O)O; Cbz = O=C(OCc1ccccc1)*

Columns and labels:
[1] = system: SARS-CoV-2 B.1.351 (Beta) variant pseudovirus; test: organism not typed; assay type: cell-based; conditions: Huh-7, read-out: EC50, inhibition of SARS-CoV-2 B.1.351 (Beta) variant pseudovirus infection
[2] = system: SARS-CoV-2 B.1.351 (Beta) variant pseudovirus; test: organism not typed; assay type: cell-based; conditions: A549, read-out: EC50, inhibition of SARS-CoV-2 B.1.351 (Beta) variant pseudovirus infection

| SMILES | EC50 [1] | EC50 [2] |
| --- | --- | --- |
| CC(NC(=O)C(Cc1ccccc1)NC(=O)OCc1ccccc1)C(=O)CF (stereo not shown) [Z-FA-FMK] | 10 µM | 5.31 µM |
| CCCCC(C=O)NC(=O)C(CC(C)C)NC(=O)C(CC(C)C)NC(C)=O (stereo not drawn) [Mg-101] (Ac-Leu-Leu-[Nle]-aldehyde; configuration not given here) | 0.86 µM | 1.89 µM |
| CCCC[C@@H](C=O)NC(=O)[C@H](CC(C)C)NC(=O)OCc1ccccc1 [calpeptin] | 23.9 µM | 36.4 µM |
| CC(C)C[C@@H](C=O)NC(=O)[C@H](CC(C)C)NC(=O)[C@H](CC(C)C)NC(=O)OCc1ccccc1 [Mg-132] (Cbz-Leu-Leu-Leu-aldehyde) | 0.901 µM | 0.908 µM |
| CC(=O)N[C@@H](CC(C)C)C(=O)N[C@@H](CC(C)C)C(=O)N[C@H](C=O)CCCNC(=N)N [leupeptin hemisulfate] | 17.1 µM | 7.71 µM |
